Source: patent US5102900A, “Imidazoles useful as antiatherosclerotic agents” (Rhone-Poulenc Rorer S.A., priority 1989, dated 1992)

Columns and labels:
[1] = target: T1, acyl coenzyme-A:cholesterol-O-acyl transferase (ACAT;EC 2.3.1.26) (Rattus norvegicus, UniProt Q7TQM4); test: In vitro ACAT inhibition in liver microsomes of cholesterol-fed rats, radiolabelled oleoyl-CoA; format: biochemical; details: 1μg/ml; microsomes from livers of rats fed 0.5% w/w cholesterol and 0.25% w/w cholic acid for 7 days; read-out: In-vitro % Inhibition (degree of ACAT inhibition)
T1 construct: microsomes, prepared from the livers of rats; from tissue; host or cells: liver microsomes of rats fed 0.5% w/w cholesterol and 0.25% w/w cholic acid for 7 days
T1 sequence (Q7TQM4 1-524): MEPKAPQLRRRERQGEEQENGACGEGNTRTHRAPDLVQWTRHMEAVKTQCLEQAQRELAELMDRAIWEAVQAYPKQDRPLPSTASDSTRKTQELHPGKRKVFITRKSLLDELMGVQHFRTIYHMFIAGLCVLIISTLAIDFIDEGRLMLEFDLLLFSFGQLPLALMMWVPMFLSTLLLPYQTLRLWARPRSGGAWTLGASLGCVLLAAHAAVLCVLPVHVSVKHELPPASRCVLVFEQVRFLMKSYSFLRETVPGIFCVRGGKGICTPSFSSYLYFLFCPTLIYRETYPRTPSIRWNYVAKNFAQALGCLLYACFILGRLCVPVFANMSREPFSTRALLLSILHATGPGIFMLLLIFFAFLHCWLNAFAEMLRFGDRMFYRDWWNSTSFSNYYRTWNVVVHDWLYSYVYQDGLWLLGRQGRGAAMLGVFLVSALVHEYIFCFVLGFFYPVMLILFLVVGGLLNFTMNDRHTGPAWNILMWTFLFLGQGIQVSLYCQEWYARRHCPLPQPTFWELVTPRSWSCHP

rats = test: In vivo inhibition of increase in plasma cholesterol level in rats fed a cholesterol supplemented diet; set-up: species or system rat; details: 0.03% w/w test compound in cholesterol supplemented diet, after 3 days, 100% or more = similar to control rats on normal diet
Experimental: In assays performed in vitro microsomes, prepared from the livers of rats fed a diet supplemented with 0.5% w/w cholesterol and 0.25% w/w cholic acid for 7 days, were incubated with radiolabelled oleoyl-CoA in the presence of compounds according to the invention at a concentration of 1μg/ml.
Values of 100% or more indicate plasma cholesterol concentrations that were similar to those of control rats fed on a normal (non-supplemented) diet.

CC1CC(C)OC(c2nc(-c3ccccc3)c(-c3ccccc3)[nH]2)O1 (racemic) [Compound C, (±)-cis/trans-2-(4,6-dimethyl-1,3-dioxan-2-yl)-4,5-diphenylimidazole]
inhibition at 1 µg/mL [1]: 74%

c1ccc(-c2nc(C3OCCCO3)[nH]c2-c2ccccc2)cc1 [Compound A, 2-(1,3-dioxan-2-yl)-4,5-diphenylimidazole]
In-vivo % Reduction (inhibition of increase in plasma cholesterol level relative to control animals) (rats): 86% | inhibition at 1 µg/mL [1]: 94%
